Measurements taken from patent US8313934B2, “Reduction of the toxic effect of impurities from raw materials by extractive fermentation” (LS9, Inc., priority 2007, dated 2012).

Columns and labels:
[1] = system: LS9-ID1; experiment: Effect of common toxins on growth of the production strain (shake flasks, OD); assay type: cell-based, E. coli; conditions: for % Inhibition for LS9-ID1: toxin added at the reported MIC, growth by OD vs control without toxin
Procedure: A culture of a genetically engineered strain of E. coli, LS9-ID1, was transferred from a frozen stock and incubated in Luria-Bertani broth for approximately three hours. The culture was transferred to a defined mineral medium commonly used for E. coli, M9, buffered and supplemented with thiamine and trace minerals. The culture was further incubated and used to inoculate the same fermentation media with 50 g/L of carbohydrate (glucose, fructose, some pentoses).
The toxicity towards microbial strains of many of the compounds in hemicelluloses and cellulose hydrolysates has been examined individually. In the case of E. coli, the toxicity is related to the hydrophobicity of the toxin. The effects of several of these compounds on the growth of certain microbial strains were evaluated. The tests were done in shake flasks by following a protocol similar to that described in example 1, above, but without the induction and the addition of alcohols.
Other concentrations were also tested to determine the range where the effect was observed. The inhibition level was reported as the ratio between growth in the absence of the toxin (control) minus growth in the presence of the toxin and growth in the control.

[2] = system: E. coli; conditions: minimal inhibitory concentration that completely inhibits growth, as reported in the literature; cited from earlier work
[3] = system: LS9-ID1; experiment: Extractive fermentation with toxin, with or without hydrophobic solvent: cell growth (OD600); assay type: cell-based, E. coli; conditions: for % Growth With Hexadecane: hexadecane as solvent; for % Growth With Eicosadecene: eicosadecene as solvent; for % Growth With C1:C12: methyl laureate as solvent; for % Growth With Biodiesel: commercial biodiesel as solvent
Procedure: Two sets of duplicate flasks were prepared with different concentrations of the toxin to be tested. One set served as the control, which included the toxin without the extractant, the hydrophobic solvent. In the second set, the extractant was added in a ratio of 1 volume of solvent per 3 volumes of fermentation broth. The flasks were then inoculated and incubated at 37° C. in agitated shakers. When the OD 600 reached a value of 1, the cultures were induced by the addition of 1 mM IPTG and 20 ml/L methanol. Cell growth and production of fatty acids methyl esters (FAME) was measured at 24 hours. In cultures without hydrophobic solvents (control), OD was measured directly in the fermentation broth. […] The OD was measured in this suspension.
(§1) To analyze FAME production, 0.5 ml of broth was well mixed with 0.5 ml of ethylacetate. The organic phase was analyzed by gas chromatography. In the samples with solvents, additional dilutions were applied. All the toxins were tested with ethyl oleate (C2:C18 ester, or C2:C18) as a solvent representative of a biodiesel. Growth and FAME production are reported as percentage of the control condition (no toxin added). Each result is the average of duplicate experiments.
The solvents methyl laureate (C1:C12 ester, or C1:C12), hexadecane (an alkane), eicosadecene (an alkene) and commercial biodiesel were tested.

[4] = system: LS9-ID1; experiment: Solvent pretreatment of toxin-spiked media before fermentation: cell growth; assay type: cell-based, E. coli; conditions: Table 12, toxin 1.5 g/L; for % Growth With Pretreatment: media extracted with methyl laureate 1:3 vol:vol, 37° C., 60 minutes, before inoculation; for % Growth No solvent: untreated media
From the text: The raw materials can be treated to remove the toxin prior to the fermentation. For this purpose it will be possible to use the bioproduct after the initial steps of purification (centrifugal separation for example) but prior to any polishing or finishing step. The sugar containing raw material can be placed in contact with the solvent in a batch or in a continuous counter current mode. After extraction, the raw material (aqueous phase) can be separated from the solvent by decantation or centrifugation.
Tests were performed similarly to that described in the above Examples. Fermentation media was prepared and spiked with the desired concentration of the toxin. Methyl laureate was used as a solvent representative of biodiesel. It was added to the fermentation media in a 1:3 vol:vol ratio. Solvent and broth were thoroughly mixed at 37° C. for 60 minutes. The aqueous layer was decanted in a separatory funnel and collected. The resulting media was then inoculated with LS9-ID1 and growth was compared against similar media containing the toxin but which had not been treated.

[5] = system: LS9-ID1; experiment: Extractive fermentation with toxin, with or without hydrophobic solvent: FAME production (GC); assay type: cell-based, E. coli; conditions: 24 h, % of no-toxin control; for % FAME titer With C2:C18: ethyl oleate 1:3
Procedure: The production of fatty acid methyl and ethyl esters was analyzed by gas chromatography with flame ionization detector (GC-FID). The samples from fermentation broth were extracted with ethyl acetate in a ratio of 1:1 vol/vol. After strong vortexing, the samples were centrifuged and the organic phase was analyzed by gas chromatography (GC). The analysis conditions were as follows: instrument: Trace GC Ultra, Thermo Electron Corporation with Flame ionization detector (FID) detector; column: DB-1 (1% diphenyl siloxane; 99% dimethyl siloxane) CO1 UFM 1/0.1/5 01 DET from Thermo Electron Corporation, phase pH 5, FT: 0.4 μm, length 5 m, id: 0.1 mm; inlet conditions: 250° C. splitless, 3.8 min 1/25 split method used depending upon sample concentration with split flow of 75 ml/min; carrier gas, flow rate: Helium, 3.0 ml/min; block temperature: 330° C.; oven temperature: 0.5 minute hold at 50° C.; 100° C./minute to 330° C., 0.5 minute hold at 330° C.; detector temperature: 300° C.; injection volume: 2 μL; run time/flow rate: 6.3 min/3.0 ml/min (splitless method), 3.8 min/1.5 ml/min (split 1/25 method), 3.04 min/1.2 ml/min (split 1/50 method).
To determine the ability to perform extractive fermentations using products generated by the engineered strain of E. coli, LS9-ID1, to improve the performance of the fermentation in the presence of toxins, the fermentations were performed using a protocol similar to that described in example 1, above. Two sets of duplicate flasks were prepared with different concentrations of the toxin to be tested. One set served as the control, which included the toxin without the extractant, the hydrophobic solvent. In the second set, the extractant was added in a ratio of 1 volume of solvent per 3 volumes of fermentation broth. The flasks were then inoculated and incubated at 37° C. in agitated shakers. When the OD 600 reached a value of 1, the cultures were induced by the addition of 1 mM IPTG and 20 ml/L methanol. Cell growth and production of fatty acids methyl esters (FAME) was measured at 24 hours. In cultures without hydrophobic solvents (control), OD was measured directly in the fermentation broth. In flasks with solvent there was interference in OD measurement, and to eliminate this problem, the broth was centrifuged and the cell pellet was resuspended in the same volume of distilled water. The OD was measured in this suspension.
as §1

[6] = toxin 1.5 g/L, ethyl oleate 1:3 vol solvent:broth, 24 h, % of no-toxin control
[7] = toxin 1.5 g/L, 24 h, % of no-toxin control (Tables 3-7)
[8] = toxin 3.0 g/L, ethyl oleate 1:3, 24 h, % of no-toxin control
[9] = toxin 3.0 g/L, 24 h, % of no-toxin control (Tables 3-7)

SMILES | % Inhibition for LS9-ID1 [1] [%] | Reported MIC [2] [µg/mL] | % Growth With Pretreatment [4] [%] | % Growth No solvent [4] [%] | % of Growth inhibition ([1]; toxin 1.00 g/L) [%] | % of Growth inhibition ([1]; toxin 1.50 g/L) [%] | % of Growth inhibition ([1]; toxin 3.00 g/L) [%] | % FAME titer With C2:C18 ([5]; toxin 1.5 g/L) [%] | % FAME titer No solvent ([5]; toxin 1.5 g/L) [%] | % FAME titer With C2:C18 ([5]; toxin 3.0 g/L) [%] | % FAME titer No solvent ([5]; toxin 3.0 g/L) [%] | % Growth With Hexadecane ([3]; Table 9, toxin 1.5 g/L) [%] | % Growth No solvent ([3]; Table 9, toxin 1.5 g/L) [%] | % Growth With Eicosadecene ([3]; Table 10, toxin 1.5 g/L) [%] | % Growth No solvent ([3]; Table 10, toxin 1.5 g/L) [%] | % Growth With Biodiesel ([3]; Table 11, toxin 1.5 g/L) [%] | % Growth With C2:C18 [3, 6] [%] | % Growth No solvent [3, 7] [%] | % Growth With C2:C18 [3, 8] [%] | % Growth No solvent [3, 9] [%] | other results
O=Cc1ccc(CO)o1 [5-Hydroxymethylfurfural] | 100 | 4000 |  |  |  |  |  |  |  |  |  |  |  |  |  |  |  |  |  |  | % Growth With Hexadecane ([3]; Table 9, toxin 2.0 g/L): 57.1%; % Growth No solvent ([3]; Table 9, toxin 2.0 g/L): 39.8%; % Growth With Eicosadecene ([3]; Table 10, toxin 2.0 g/L): 55.3%; % Growth No solvent ([3]; Table 10, toxin 2.0 g/L): 51.8%; % Growth With C2:C18 ([3]; toxin 4.0 g/L, ethyl oleate 1:3, 24 h, % of no-toxin control): 20.9%; % Growth No solvent ([3]; toxin 4.0 g/L, 24 h, % of no-toxin control): 4.7%; % Growth With C2:C18 ([3]; toxin 8.0 g/L, ethyl oleate 1:3, 24 h, % of no-toxin control): 9.1%; % Growth No solvent ([3]; toxin 8.0 g/L, 24 h, % of no-toxin control): 2.2%
O=Cc1ccco1 [Furfural] | 100 | 3500 | 69.6 | 33.3 | 0 | 60.0 | 18.5 | 72.7 | 35.5 | 43.2 | 4.5 | 38.5 | 17.7 | 56.7 | 33.3 | 49.7 | 71.9 | 40.0 | 53.6 | 21.5 | % Growth With C1:C12 ([3]; Table 8, toxin 3.0 g/L): 16.7%; % Growth No solvent ([3]; Table 8, toxin 3.0 g/L): 6.1%; % Growth No solvent ([3]; Table 11, toxin 1.5 g/L): 33.3%
O=Cc1ccc(O)cc1 [4-hydroxybenzaldehyde] | 100 | 1250 |  |  |  |  |  |  |  |  |  | 53.8 | 6.2 | 11.2 | 9.6 |  |  |  |  |  | % FAME titer With C2:C18 ([5]; toxin 0.63 g/L): 72.6%; % FAME titer No solvent ([5]; toxin 0.63 g/L): 54.3%; % FAME titer With C2:C18 ([5]; toxin 1.25 g/L): 31.8%; % FAME titer No solvent ([5]; toxin 1.25 g/L): 18.1%; % Growth With C1:C12 ([3]; Table 8, toxin 1.5 g/L): 33.0%; % Growth No solvent ([3]; Table 8, toxin 1.5 g/L): 20.2%; % Growth With C2:C18 ([3]; toxin 0.63 g/L, ethyl oleate 1:3, 24 h, % of no-toxin control): 68.0%; % Growth No solvent ([3]; toxin 0.63 g/L, 24 h, % of no-toxin control): 70.0%; % Growth With C2:C18 ([3]; toxin 1.25 g/L, ethyl oleate 1:3, 24 h, % of no-toxin control): 60.0%; % Growth No solvent ([3]; toxin 1.25 g/L, 24 h, % of no-toxin control): 45.0%
Cc1ccc(O)c(O)c1 [4-Methyl catechol] | 25 | 1500 |  |  |  |  |  |  |  |  |  |  |  |  |  |  |  |  |  |  | 
COc1ccccc1O [Guaiacol] | 100 | 3000 |  |  | 0 | 41.7 | 100 | 100.5 | 10.2 | 76.2 | 2.3 | 41.8 | 12.7 | 31.8 | 15.8 |  | 93.7 | 30.4 | 65.1 | 12.5 | % of Growth inhibition ([1]; toxin 2.00 g/L): 83.3%; % Growth With C1:C12 ([3]; Table 8, toxin 1.5 g/L): 88.6%; % Growth No solvent ([3]; Table 8, toxin 1.5 g/L): 18.3%
COc1cc(C=O)cc(OC)c1O [Syringaldehyde] | 100 | 2500 | 83.3 | 8.8 |  |  |  | 94.8 | 16.2 | 92.7 | 2.0 | 40.7 | 19.5 | 48.2 | 8.8 | 39.2 | 41.0 | 34.4 | 14.8 | 6.6 | % Growth With Co-treatment ([4]; co-treatment): 61.2%; % Growth No solvent ([3]; Table 11, toxin 1.5 g/L): 8.8%
